Assay results reported in paper PMC4579345 (Journal of acquired immune deficiency syndromes (1999), 2015).
Read-outs that look alike come from different tables or passages of the source.

How the values were obtained:
HIV RNA = details: cited from earlier work
[1] = mean (95%CI), ref 16 (Colbers, et al), cited from earlier work
[2] = cited from earlier work; for Mean decrease in darunavir AUC: third trimester, ref 16 (Colbers, et al)
[3] = Cord blood and maternal plasma darunavir concentrations at delivery; assay type: in vivo, human
[4] = Clinical and laboratory toxicity monitoring of mothers and infants; details: human, in vivo
wild type HIV = details: cited from earlier work
HIV-1 RNA = assay: Maternal HIV RNA at delivery and infant HIV infection status; assay type: in vivo; details: median (range)
[5] = Ritonavir pharmacokinetic parameters during pregnancy and postpartum; assay type: in vivo, human; details: for AUC(0-t): AUC0-12, twice daily dosing; for AUC(0-t) / Cmax: median (interquartile range)
[6] = of 43 subjects, limit 0.09 μg/mL

Question: For CC(C)CN(C[C@@H](O)[C@H](Cc1ccccc1)NC(=O)O[C@H]1CO[C@H]2OCC[C@H]21)S(=O)(=O)c1ccc(N)cc1 [darunavir], which Infected infants (HIV RNA; 12 mothers in the Zorrilla study who remained on therapy at delivery, 15 mothers in the Colbers study) is on record?
Answer: no infected infants

Question: And the “Women with HIV RNA below 1000 copies/mL approaching delivery” value (HIV RNA; once daily dosing, ref 24 (Colbers, et al))?
Answer: 93%

Question: And the “Subjects with detectable HIV RNA (>50 copies/mL) during pregnancy” value (HIV RNA; twice daily dosing, ref 15 (Zorrilla, et al))?
Answer: 3 of 14

Question: What about the Free fraction ([1]; 14 women postpartum) of the same compound?
Answer: 10%

Question: What about the Free fraction ([1]; 19 women in the third trimester) of the same compound?
Answer: 12%

Question: What about the “Mean decrease in darunavir AUC” value ([2]; 6 women, twice daily dosing) of the same compound?
Answer: 34%

Question: And the “Decrease in darunavir AUC” value ([2]; 14 women dosed twice daily, second and third trimesters, ref 15 (Zorrilla, et al))?
Answer: 17-24%

Question: What about the “Mean decrease in darunavir AUC” value ([2]; 18 women, once daily dosing) of the same compound?
Answer: 22%

Question: What about the “Maternal plasma delivery concentration” value ([3]; median (range), samples above the limit of quantitation) of the same compound?
Answer: 1.98 µg/mL

Question: And the “Cord blood samples with concentration below the assay limit of quantitation” value [3, 6]?
Answer: 15

Question: And the “Maternal samples with concentration below the assay limit of quantitation” value [3, 6]?
Answer: 11

Question: And the “Subjects indicating side effects of darunavir as a reason for discontinuation” value [4]?
Answer: No subjects

Question: And the “Tolerability during pregnancy and postpartum” value [4]?
Answer: well tolerated

Question: And the “EC50 for wild type HIV” value (wild type HIV)?
Answer: 0.06 μ/mL

Question: What about the “HIV-1 RNA at delivery” value (HIV-1 RNA; Combined N=66) of the same compound?
Answer: <50 (<50 - 66,142) copies/mL

Question: And the “HIV-1 RNA at delivery” value (HIV-1 RNA; Once Daily Dosing N=32)?
Answer: <50 (<50 - 35,313) copies/mL

Question: And the “HIV-1 RNA at delivery” value (HIV-1 RNA; Twice Daily Dosing N=34)?
Answer: 51 (<50 - 66,142) copies/mL

Question: For CC(C)c1nc(CN(C)C(=O)N[C@H](C(=O)N[C@@H](Cc2ccccc2)C[C@H](O)[C@H](Cc2ccccc2)NC(=O)OCc2cncs2)C(C)C)cs1 [ritonavir], which AUC(0-t) ([5]; female, human, plasma, oral, postpartum) is on record?
Answer: 5600 ng·h/mL

Question: What about the AUC(0-t) ([5]; female, human, plasma, oral, second trimester) of the same compound?
Answer: 3900 ng·h/mL

Question: What about the AUC(0-t) ([5]; female, human, plasma, oral, third trimester) of the same compound?
Answer: 3800 ng·h/mL

Question: What about the Cmax ([5]; female, human, plasma, oral, Cmax, once daily dosing, postpartum) of the same compound?
Answer: 640 ng/mL

Question: And the Cmax ([5]; female, human, plasma, oral, Cmax, twice daily dosing, second trimester)?
Answer: 470 ng/mL

Question: What about the Cmax ([5]; female, human, plasma, oral, Cmax, twice daily dosing, third trimester) of the same compound?
Answer: 460 ng/mL

Question: And the “Ritonavir exposure during pregnancy” value ([5]; in vivo)?
Answer: reduced

Question: What about the Cmax ([5]; once daily dosing, second trimester) of the same compound?
Answer: 290 ng/mL

Question: And the Cmax ([5]; once daily dosing, third trimester)?
Answer: 270 ng/mL
